Assay results: the supplement of paper PMC13380429

Tests used:
Calu-3 [1] = experiment: cell viability relative to DMSO; higher = less toxic; settings: 72 h
HepG2 [2] = experiment: as above; settings: 72 h
Vero E6 [3] = experiment: as above; settings: 72 h
Caco-2 [4] = experiment: as above; settings: 72 h
U2OS [5] = experiment: as above; settings: 72 h
Calu-3 [6] = experiment: drug sensitivity score (DSS) for viability; higher = more toxic; extreme values may be limits of the assay; settings: 72 h
HepG2 [7] = experiment: as above; settings: 72 h
Vero E6 [8] = experiment: as above; settings: 72 h
Caco-2 [9] = experiment: as above; settings: 72 h
U2OS [10] = experiment: as above; settings: 72 h
[11] = system: A549-ACE2 infected with SARS-CoV-2; experiment: SARS-CoV-2 infection rate relative to DMSO; higher = more infection; settings: 24 h
[12] = system: A549-ACE2 infected with SARS-CoV-2; experiment: morphology score (similarity to uninfected cells); higher = more like uninfected cells; settings: 24 h
[13] = system: A549-ACE2 infected with SARS-CoV-2; experiment: cell count relative to DMSO; higher = less toxic; settings: 24 h
A549-ACE2 = experiment: drug-induced phospholipidosis relative to tamoxifen; higher = more phospholipidosis
Calu-3 [14] = experiment: relative viability EC50 (midpoint between 100% and the lowest measured viability); higher = less toxic; settings: 72 h
HepG2 [15] = experiment: as above; settings: 72 h
Vero E6 [16] = experiment: as above; settings: 72 h
Caco-2 [17] = experiment: as above; settings: 72 h
U2OS [18] = experiment: as above; settings: 72 h

Cc1csc(NC(=O)CSc2ccc(-c3ccccc3)nn2)n1
Settings | SARS-CoV-2 infection rate, [11] [%] | cell count, [13] [%] | cell viability, Caco-2 [4] [%] | cell viability, Calu-3 [1] [%] | cell viability, HepG2 [2] [%] | cell viability, U2OS [5] [%] | cell viability, Vero E6 [3] [%] | morphology score, [12]
1 nM | – | – | 92.1 | 85 | 97.8 | 98 | 101 | –
10 nM | – | – | 93.4 | 99.1 | 109 | 97.3 | 102 | –
100 nM | – | – | 103 | 104 | 90.4 | 102 | 99.1 | –
0.3 µM | 105 | 97 | – | – | – | – | – | -0.03
1000 nM | – | – | 97 | 99.3 | 89.1 | 99.3 | 105 | –
3 µM | 88 | 97 | – | – | – | – | – | 0.29
10000 nM | – | – | 104 | 108 | 87.4 | 104 | 94.5 | –
10 µM | 92 | 107 | – | – | – | – | – | 0.25
30 µM | 84 | 100 | – | – | – | – | – | 0.25

Settings | drug sensitivity score | relative viability EC50 [µM]
Caco-2 [9] | 0 | –
Caco-2 [17] | – | > 10
Calu-3 [6] | 0 | –
Calu-3 [14] | – | > 10
HepG2 [7] | 1.2 | –
HepG2 [15] | – | > 10
U2OS [10] | 0 | –
U2OS [18] | – | > 10
Vero E6 [8] | 0 | –
Vero E6 [16] | – | > 10

drug-induced phospholipidosis [%], A549-ACE2
Settings | 0.3 µM | 0.833333 µM | 3.33333 µM | 6.66667 µM | 10 µM | 30 µM
24 h | 1.93 | -1.81 | -0.96 | 2.15 | 1.89 | 7.11
48 h | 2.87 | 0.35 | 1.94 | 5.23 | 4.85 | 15.6
72 h | 2.21 | 0.253 | 3.17 | 3.1 | 6.16 | 24.6

O=C(COc1ccc(Cl)cc1)N[C@H]1CC[C@H](NC(=O)COc2ccc(Cl)cc2)CC1 [ISRIB]
Settings | SARS-CoV-2 infection rate, [11] [%] | cell count, [13] [%] | cell viability, Caco-2 [4] [%] | cell viability, Calu-3 [1] [%] | cell viability, HepG2 [2] [%] | cell viability, U2OS [5] [%] | cell viability, Vero E6 [3] [%] | morphology score, [12]
1 nM | – | – | 98.5 | 107 | 98.4 | 99.7 | 92.2 | –
10 nM | – | – | 97.1 | 88.2 | 100 | 96.2 | 98.4 | –
100 nM | – | – | 95.1 | 101 | 105 | 99 | 97.2 | –
0.3 µM | 100 | 99 | – | – | – | – | – | -0.01
1000 nM | – | – | 96.6 | 101 | 100 | 96 | 95.2 | –
3 µM | 96 | 103 | – | – | – | – | – | 0.03
10000 nM | – | – | 106 | 99.1 | 96.3 | 99.2 | 91.3 | –
10 µM | 103 | 99 | – | – | – | – | – | 0.01
30 µM | 108 | 99 | – | – | – | – | – | -0.2

Settings | drug sensitivity score | relative viability EC50 [µM]
Caco-2 [9] | 0 | –
Caco-2 [17] | – | > 10
Calu-3 [6] | 0 | –
Calu-3 [14] | – | > 10
HepG2 [7] | 0 | –
HepG2 [15] | – | > 10
U2OS [10] | 0 | –
U2OS [18] | – | > 10
Vero E6 [8] | 0 | –
Vero E6 [16] | – | > 10

drug-induced phospholipidosis [%], A549-ACE2
Settings | 0.3 µM | 0.833333 µM | 3.33333 µM | 6.66667 µM | 10 µM | 30 µM
24 h | -0.51 | 0.36 | -2.23 | -2.98 | 3.29 | -1.76
48 h | 0.57 | -0.91 | -1.5 | 0.01 | 2.91 | 2.54
72 h | -0.626 | -0.0303 | -1 | 1.31 | 3.63 | 5.83

O=c1cc(N2CCOCC2)oc2c(-c3cccc4c3sc3ccccc34)cccc12 [NU-7441]
Settings | SARS-CoV-2 infection rate, [11] [%] | cell count, [13] [%] | cell viability, Caco-2 [4] [%] | cell viability, Calu-3 [1] [%] | cell viability, HepG2 [2] [%] | cell viability, Vero E6 [3] [%] | morphology score, [12]
1 nM | – | – | 109 | 101 | 108 | 104 | –
10 nM | – | – | 89.2 | 110 | 108 | 102 | –
100 nM | – | – | 100 | 98.7 | 116 | 102 | –
0.1 µM | 101 | 96 | – | – | – | – | -0.14
0.3 µM | 101 | 94 | – | – | – | – | -0.23
1000 nM | – | – | 71.2 | 111 | 88.4 | 85.4 | –
1 µM | 74 | 105 | – | – | – | – | 0.22
3 µM | 38 | 98 | – | – | – | – | 0.53
10000 nM | – | – | 56.9 | 61 | 32.7 | 14.4 | –

Settings | drug sensitivity score | relative viability EC50 [µM]
Caco-2 [9] | 5.6 | –
Calu-3 [6] | 1.4 | –
HepG2 [7] | 5.6 | –
HepG2 [15] | – | 1.87
Vero E6 [8] | 7.2 | –
Vero E6 [16] | – | 1.87

drug-induced phospholipidosis [%], A549-ACE2
Settings | 0.3 µM | 0.833333 µM | 3.33333 µM | 6.66667 µM | 10 µM | 30 µM
24 h | -4.01 | -8.02 | 17.6 | 23.6 | 28.1 | 26.9
48 h | -3.93 | -5.23 | 26.4 | – | – | –
72 h | -2.08 | -7.5 | – | – | – | –

C=C1C(=O)[C@]23[C@H](O)[C@H]1CC[C@H]2[C@@]12CO[C@]3(O)[C@@H](O)[C@@H]1C(C)(C)CC[C@@H]2O [Oridonin (Isodonol)]
Settings | SARS-CoV-2 infection rate, [11] [%] | cell count, [13] [%] | cell viability, Caco-2 [4] [%] | cell viability, HepG2 [2] [%] | cell viability, U2OS [5] [%] | cell viability, Vero E6 [3] [%] | morphology score, [12]
1 nM | – | – | 97.7 | 97.4 | 102 | 99.9 | –
10 nM | – | – | 107 | 103 | 95.1 | 98.7 | –
100 nM | – | – | 103 | 91.8 | 98.3 | 97.9 | –
0.1 µM | 100 | 94 | – | – | – | – | -0.14
0.3 µM | 99 | 101 | – | – | – | – | -0.02
1000 nM | – | – | 93.3 | 96.2 | 94.4 | 95.4 | –
1 µM | 104 | 99 | – | – | – | – | -0.18
3 µM | 101 | 98 | – | – | – | – | -0.01
10000 nM | – | – | 65.4 | 42.8 | 11.8 | 79.7 | –

Settings | drug sensitivity score | relative viability EC50 [µM]
Caco-2 [9] | 2.7 | –
HepG2 [7] | 3.7 | –
HepG2 [15] | – | 2.63
U2OS [10] | 5.7 | –
U2OS [18] | – | 2.66
Vero E6 [8] | 1.2 | –
Vero E6 [16] | – | > 10

drug-induced phospholipidosis [%], A549-ACE2
Settings | 0.3 µM | 0.833333 µM | 3.33333 µM | 6.66667 µM | 10 µM | 30 µM
24 h | 5.1 | -1.43 | 0.65 | 11 | 16.8 | 43.1
48 h | 5.34 | -3.46 | -0.285 | 6.67 | 13 | –
72 h | 4.41 | -5.79 | -4.81 | -1.61 | 4.49 | –
